Laboratory results from US12351571B2, “Substituted quinoxaline compounds as inhibitors of FGFR tyrosine kinases” (ARRAY BIOPHARMA INC., priority 2018, dated 2025).

Legend:
[1] = biological target: recombinant human FGFR1 catalytic domain (Homo sapiens (Human), UniProt P11362); assay: FGFR Enzyme Activity Assay (LanthaScreen TR-FRET), FGFR1; format: biochemical; conditions: 15 μM ATP, 20 minutes incubation; read-out: FGFR1 Enz FRET IC50
Procedure: FGFR1 kinase activity was measured by the Invitrogen LanthaScreen™ Assay technology which directly measures the amount of substrate phosphorylation by Time-resolved fluorescence energy transfer (TR-FRET) using a flourescently-labeled peptide and Europium-labeled antibody. Briefly, 200 pM His-tagged recombinant human FGFR1 catalytic domain (amino acids 308-731) (Life Technologies Cat. No. PR4660A) was incubated with 100 nM Alexa Fluor® 647-Poly-GT Peptide Substrate (Life Technologies Cat. No. PV5836) and 15 μM ATP along with test compound in a buffer consisting of 250 mM HEPES, 25 mM MgCl2, 0.05% TritonX-100, pH 7.5, and 2% DMSO. Compounds were typically prepared in a threefold serial dilution in DMSO and added to the assay to give the appropriate final concentration. After a 20 minutes incubation at 22° C., an equal volume of 2 nM LanthaScreen® Eu-PY20 Antibody (Life Technologies Cat. No. PV5691) and 10 mM EDTA was added to quench the kinase reaction and start the detection reaction. After an additional 60 minute incubation at 22° C., the reaction was measured using a PerkinElmer EnVision multimode plate reader via TR-FRET dual wavelength detection, and the percent of control (POC) calculated using a ratiometric emission factor. 100 POC was determined using no test compounds and 0 POC was determined using no enzyme. The POC values were fit to a 4-parameter logistic curve as a function of the concentration of the compound, and the IC50 value is the point where the curve crosses 50 POC.

FGFR3 [2] = biological target: T1, FGFR3 (Homo sapiens (Human), UniProt P22607); assay: FGFR Enzyme Activity Assay (LanthaScreen TR-FRET), FGFR3; format: biochemical; conditions: 25 μM ATP, 10 minute incubation; read-out: FGFR3 Enz FRET IC50
Procedure: FGFR3 kinase activity was measured by the Invitrogen LanthaScreen™ Assay technology which directly measures the amount of substrate phosphorylation by TR-FRET using a flourescently-labeled peptide and Europium-labeled antibody. Briefly, 750 pM N-terminal GST-HIS6 fusion protein with a 3C cleavage site recombinant human FGFR3 (amino acids R397-T806) (ProQinase Cat. No. 1068-0000-1) was incubated with 100 nM Alexa Fluor® 647-Poly-GT Peptide Substrate (Life Technologies Cat. No. PV5836) and 25 μM ATP along with test compound in a buffer consisting of 250 mM HEPES, 25 mM MgCl2, 0.05% TritonX-100, pH 7.5, and 2% DMSO. Compounds were typically prepared in a threefold serial dilution in DMSO and added to the assay to give the appropriate final concentration. After a 10 minute incubation at 22° C., an equal volume of 2 nM LanthaScreen® Eu-PY20 Antibody (Life Technologies Cat. No. PV5691) and 10 mM EDTA were added to quench the kinase reaction and start the detection reaction. After an additional 60 minute incubation at 22° C., the reaction was measured using a PerkinElmer EnVision multimode plate reader via TR-FRET dual wavelength detection, and the percent of control (POC) calculated using a ratiometric emission factor. 100 POC was determined using no test compounds and 0 POC was determined using no enzyme. The POC values were fit to a 4-parameter logistic curve as a function of the concentration of the compound, and the IC50 value is the point where the curve crosses 50 POC.
Target sequence in this assay (P22607 397-806): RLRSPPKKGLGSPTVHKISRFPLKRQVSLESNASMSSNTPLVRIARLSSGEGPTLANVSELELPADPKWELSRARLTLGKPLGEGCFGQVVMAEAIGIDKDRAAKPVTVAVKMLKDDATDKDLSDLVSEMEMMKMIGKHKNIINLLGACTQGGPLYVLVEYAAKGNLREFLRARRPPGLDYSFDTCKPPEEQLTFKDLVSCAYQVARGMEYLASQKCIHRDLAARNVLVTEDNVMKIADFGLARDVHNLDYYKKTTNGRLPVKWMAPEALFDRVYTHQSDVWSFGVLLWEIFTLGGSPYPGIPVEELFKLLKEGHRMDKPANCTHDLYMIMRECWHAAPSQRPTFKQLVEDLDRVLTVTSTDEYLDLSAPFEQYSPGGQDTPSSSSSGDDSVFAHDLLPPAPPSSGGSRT

FGFR1 = FGFR1 (Homo sapiens (Human), UniProt P11362); assay: LC/MS FGFR1 kobs assay (covalent modification); format: biochemical; conditions: 500 nM FGFR1, 3 μM compound
Procedure: (§1) The LC/MS FGFR1 and FGFR3 kobs assays were conducted as follows. 500 nM FGFR1 (Array BioPharma construct p1702; SEQ ID NO: 1, amino acids 458-765) or FGFR3 (Array BioPharma construct p1700; SEQ ID NO: 5, amino acids 449-759) were incubated with 3 μM compound in 25 mM HEPES (4-(2-hydroxyethyl)-1-piperazineethanesulfonic acid), pH 7.4, 5 mM MgCl2, 150 mM NaCl, 0.5 mM TCEP (tris(2-carboxyethyl) phosphine), and 2% DMSO in a total volume of 20 μL. At each time point, the reaction was quenched with 20 μL of 0.4% formic acid. The extent of protein modification by each compound was determined by LC/MS on an Agilent Technologies 6520 Q-TOF LC/MS. Protein signals were then automatically deconvoluted using Agilent Masshunter software. Deconvoluted mass signals were exported to Tibco Spotfire data analysis program for further processing and normalization.
(§2) Data analysis included five steps. First, the signals for the “DMSO Controls” were analyzed to determine the percent of signal associated with unmodified FGFR1 or FGFR3 at each time point. Next, the percent of the signal associated with the covalent modification was determined. Third, the average nonmodified “DMSO Control” signal was used to normalize the modified protein signals at each time point. The percent of unmodified protein was fit to an exponential decay model where A0 is the Percent Unmodified at the start of the reaction, and kobs is the observed rate constant over the time period.

FGFR3 [3] = biological target: T1, FGFR3; assay: LC/MS FGFR3 kobs assay (covalent modification); format: biochemical; conditions: 500 nM FGFR3, 3 μM compound
Procedure: as §1, §2
Target sequence in this assay (P22607 449-759): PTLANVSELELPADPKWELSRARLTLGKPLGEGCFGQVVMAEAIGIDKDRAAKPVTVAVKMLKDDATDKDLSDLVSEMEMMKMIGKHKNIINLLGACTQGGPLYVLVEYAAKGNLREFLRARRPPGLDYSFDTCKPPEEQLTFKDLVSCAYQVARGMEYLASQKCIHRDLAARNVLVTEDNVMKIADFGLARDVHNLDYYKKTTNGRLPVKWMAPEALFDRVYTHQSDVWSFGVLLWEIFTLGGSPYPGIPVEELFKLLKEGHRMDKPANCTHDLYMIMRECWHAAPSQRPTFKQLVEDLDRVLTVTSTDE

human wild type FGFR3 = human wild type FGFR3 (Homo sapiens (Human), UniProt P22607); assay: FGFR3 pERK Cell Assay; format: cell-based; conditions: HEK-293 cells, 1 hour compound, 100 ng/ml human FGF-acidic; maximum concentration 5 μM
Procedure: HEK-293 cells transfected with dox-inducible human wild type FGFR3 (SEQ ID NO: 5) were plated in a collagen or poly-D-lysine coated 96 well flat bottom plates at 4×10^5 cells/well in complete DMEM medium containing 10% FBS and 1 μg/ml doxycycline and allowed to attach for 24 h at 37° C., 5% CO2. Cells were treated with compound using 1:3 serial dilutions with a maximum final concentration of 5 μM. Compound was incubated on cells for 1 hour at 37° C., 5% CO2. Cells were then stimulated with a final concentration of 100 ng/ml human FGF-acidic (R&D Systems Cat number 232-FA/CF) for 5 minutes at 37° C., 5% CO2. Medium was removed, and cells were lysed with lysis buffer containing phosphatase and protease inhibitors. Phospho ERK1/2 was measured using the Meso Scale Discovery sandwich assay (Meso Scale Discovery cat. no. K151DWD). The assay captures phospho ERK1/2 and detects with a sulfo-tagged total ERK1/2 antibody. The chemiluminescent signal was read on the Sector Imager Plate reader. 100 POC was determined using no test compounds and 0 POC was determined using a control compound. The POC values were fit to a 4-parameter logistic curve as a function of the concentration of the compound, and the IC50 value is the point where the curve crosses 50 POC.

Sequence of FGFR1 (P11362 458-765): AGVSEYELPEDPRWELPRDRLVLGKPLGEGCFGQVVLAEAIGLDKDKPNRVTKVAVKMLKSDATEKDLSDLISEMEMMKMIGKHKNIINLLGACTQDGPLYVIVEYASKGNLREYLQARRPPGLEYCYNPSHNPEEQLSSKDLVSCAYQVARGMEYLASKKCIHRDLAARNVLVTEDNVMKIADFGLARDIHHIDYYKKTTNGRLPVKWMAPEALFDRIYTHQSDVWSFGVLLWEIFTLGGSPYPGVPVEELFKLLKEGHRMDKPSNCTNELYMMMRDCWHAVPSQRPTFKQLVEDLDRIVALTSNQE
Sequence of human wild type FGFR3 (P22607 23-806): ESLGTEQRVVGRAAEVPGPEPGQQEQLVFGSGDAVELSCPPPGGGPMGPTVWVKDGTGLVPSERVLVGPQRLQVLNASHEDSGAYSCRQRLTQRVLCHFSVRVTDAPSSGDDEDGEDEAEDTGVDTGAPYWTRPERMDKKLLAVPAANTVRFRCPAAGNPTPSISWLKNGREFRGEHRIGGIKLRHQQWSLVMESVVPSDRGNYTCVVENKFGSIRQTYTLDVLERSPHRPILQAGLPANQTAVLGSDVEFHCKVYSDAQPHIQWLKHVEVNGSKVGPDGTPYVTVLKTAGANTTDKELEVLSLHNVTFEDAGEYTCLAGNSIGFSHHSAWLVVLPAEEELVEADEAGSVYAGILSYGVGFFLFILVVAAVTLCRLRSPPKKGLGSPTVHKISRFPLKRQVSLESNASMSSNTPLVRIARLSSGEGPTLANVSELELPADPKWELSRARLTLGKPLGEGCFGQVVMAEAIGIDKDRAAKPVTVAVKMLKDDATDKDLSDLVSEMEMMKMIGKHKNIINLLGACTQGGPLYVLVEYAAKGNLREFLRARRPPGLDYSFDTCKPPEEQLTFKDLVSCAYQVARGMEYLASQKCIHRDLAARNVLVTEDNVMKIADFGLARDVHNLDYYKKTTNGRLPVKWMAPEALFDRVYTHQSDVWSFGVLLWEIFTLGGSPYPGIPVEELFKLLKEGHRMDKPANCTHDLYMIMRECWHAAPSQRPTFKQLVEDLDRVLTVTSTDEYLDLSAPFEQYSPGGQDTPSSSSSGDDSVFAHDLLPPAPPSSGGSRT
Sequence of recombinant human FGFR1 catalytic domain (P11362 other isoform, or with tags, fused parts or gaps): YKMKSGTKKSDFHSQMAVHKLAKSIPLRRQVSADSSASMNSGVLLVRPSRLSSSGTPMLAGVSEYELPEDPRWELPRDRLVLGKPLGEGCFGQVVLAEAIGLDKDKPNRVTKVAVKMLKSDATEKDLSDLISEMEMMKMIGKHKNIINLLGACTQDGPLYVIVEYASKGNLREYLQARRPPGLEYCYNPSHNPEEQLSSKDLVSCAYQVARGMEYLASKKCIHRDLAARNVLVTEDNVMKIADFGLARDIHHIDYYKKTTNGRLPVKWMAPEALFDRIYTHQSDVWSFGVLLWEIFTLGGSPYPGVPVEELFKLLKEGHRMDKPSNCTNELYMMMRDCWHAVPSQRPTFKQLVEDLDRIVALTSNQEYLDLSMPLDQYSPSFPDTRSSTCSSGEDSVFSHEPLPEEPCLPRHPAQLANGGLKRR

Row | Compound | IC50 [1] [nM] | IC50 (FGFR3 [2]) [nM] | FGFR1 Enz kobs (FGFR1) [min⁻¹] | FGFR3 Enz kobs (FGFR3 [3]) [min⁻¹] | IC50 (human wild type FGFR3) [nM]
1 | C=CC(=O)N1CC(F)(C(=O)N2CCN(c3cc(C)c(-c4cnc5ccc(Nc6cc(OC)cc(OC)c6)cc5n4)cn3)CC2)C1 [Example 15, 1-(3-(4-(5-(7-((3,5-dimethoxyphenyl)amino)-quinoxalin-2-yl)-4-methylpyridin-2-yl)-piperazine-1-carbonyl)-3-fluoroazetidin-1-yl)prop-2-en-1-one] | 5000 | 5000 | 0.00154 | 0.0172 | 528
2 | C=CC(=O)N1CC(C(=O)N2CC(n3cc(-c4cnc5ccc(Nc6cc(OC)cc(OC)c6)cc5n4)cn3)C2)C1 [Example 16, 1-(3-(3-(4-(7-((3,5-dimethoxyphenyl)amino)-quinoxalin-2-yl)-1H-pyrazol-1-yl)azetidine-1-carbonyl)azetidin-1-yl)-prop-2-en-1-one] | 48 | 18 | 0.00151 | 0.01232 | 397
3 | C=CC(=O)N1CC(C(=O)N2CC[C@@H](n3cc(-c4cnc5ccc(Nc6cc(OC)cc(OC)c6)cc5n4)cn3)C2)C1 [Example 21, (R)-1-(3-(3-(4-(7-((3,5-dimethoxyphenyl)amino)-quinoxalin-2-yl)-1H-pyrazol-1-yl)pyrrolidine-1-carbonyl)azetidin-1-yl)prop-2-en-1-one] | 295 | 37 | 0.00106 | 0.00664 | 390

Further lines, results first:

Row | IC50 [1] [nM] | IC50 (FGFR3 [2]) [nM] | FGFR1 Enz kobs (FGFR1) [min⁻¹] | FGFR3 Enz kobs (FGFR3 [3]) [min⁻¹] | IC50 (human wild type FGFR3) [nM] | Compound
4 | 376 | 48 | 0.00842 | 0.08024 | 61 | COc1cc(Nc2ccc3ncc(-c4cnn(C5CCN(C(=O)C6(F)CN(C(=O)/C=C/CN(C)C)C6)CC5)c4C)nc3c2)cc(OC)c1 [Example 17, (E)-1-(3-(4-(4-(7-((3,5-dimethoxyphenyl)amino)-quinoxalin-2-yl)-5-methyl-1H-pyrazol-1-yl)piperi-dine-1-carbonyl)-3-fluoroazetidin-1-yl)-4-(dimethylamino)but-2-en-1-one]
5 | 1210 | 373 | 0.00096 | 0.01462 | 216 | C=CC(=O)N1CC(C(=O)N2CCC(n3ncc(-c4cnc5ccc(Nc6cc(OC)cc(OC)c6)cc5n4)c3C)CC2)C1 [Example 18, 1-(3-(4-(4-(7-((3,5-dimethoxyphenyl)amino)-quinoxalin-2-yl)-5-methyl-1H-pyrazol-1-yl)piperi-dine-1-carbonyl)azetidin-1-yl)prop-2-en-1-one]
6 | 288 | 50 | 0.00339 | 0.03902 | 114 | COc1cc(Nc2ccc3ncc(-c4cnn([C@@H]5CCN(C(=O)C6(F)CN(C(=O)/C=C/CN(C)C)C6)C5)c4)nc3c2)cc(OC)c1 [Example 19, (R,E)-1-(3-(3-(4-(7-((3,5-dimethoxyphenyl)amino)-quinoxalin-2-yl)-1H-pyrazol-1-yl)pyrrolidine-1-carbonyl)-3-fluoro-azetidin-1-yl)-4-(dimethyl-amino)but-2-en-1-one]
7 | 194 | 42 | 0.00141 | 0.00892 | 2740 | COc1cc(Nc2ccc3ncc(-c4cnn([C@@H]5CCN(C(=O)C6CN(C(=O)/C=C/CN(C)C)C6)C5)c4)nc3c2)cc(OC)c1 [Example 20, (R,E)-1-(3-(3-(4-(7-((3,5-dimethoxyphenyl)amino)-quinoxalin-2-yl)-1H-pyrazol-1-yl)pyrrolidine-1-carbonyl)azetidin-1-yl)-4-(dimethylamino)but-2-en-1-one]
